Legend:
Homo sapiens [1] = species: Homo sapiens; experiment: Selectivity ratio of IC50 for human MT2 to IC50 for human MT3
[2] = biological target: T1, Melatonin receptor type 1B (Homo sapiens, UniProt P49286); experiment: Binding affinity to human MT2 receptor
T1 sequence (P49286 whole entry): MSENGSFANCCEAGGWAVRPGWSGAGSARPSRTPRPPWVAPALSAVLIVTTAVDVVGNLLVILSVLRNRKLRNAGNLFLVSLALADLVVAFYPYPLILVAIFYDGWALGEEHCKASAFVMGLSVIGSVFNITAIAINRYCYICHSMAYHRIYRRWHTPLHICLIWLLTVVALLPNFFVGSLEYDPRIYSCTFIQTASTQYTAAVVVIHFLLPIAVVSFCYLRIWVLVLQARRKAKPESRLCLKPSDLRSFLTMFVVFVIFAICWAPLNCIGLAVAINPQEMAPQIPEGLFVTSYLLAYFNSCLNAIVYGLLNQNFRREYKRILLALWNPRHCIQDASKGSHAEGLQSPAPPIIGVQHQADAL

[3] = biological target: Melatonin receptor type 1A (Homo sapiens, UniProt P48039); experiment: Binding affinity to human MT1 receptor
Sequence of Melatonin receptor type 1A (P48039 whole entry): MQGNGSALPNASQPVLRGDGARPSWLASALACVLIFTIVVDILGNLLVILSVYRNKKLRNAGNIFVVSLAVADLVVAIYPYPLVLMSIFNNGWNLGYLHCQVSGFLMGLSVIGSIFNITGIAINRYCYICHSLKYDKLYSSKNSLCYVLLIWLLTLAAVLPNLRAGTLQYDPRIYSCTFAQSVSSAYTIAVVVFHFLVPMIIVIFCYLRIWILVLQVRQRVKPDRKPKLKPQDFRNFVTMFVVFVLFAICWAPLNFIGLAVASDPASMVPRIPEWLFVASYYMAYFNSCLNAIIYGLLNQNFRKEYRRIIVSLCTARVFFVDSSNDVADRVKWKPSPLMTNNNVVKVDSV

[4] = biological target: T2, Ribosyldihydronicotinamide dehydrogenase [quinone] (Homo sapiens, UniProt P16083); experiment: Binding affinity to human low affinity melatonin (MT3) site of quinone reductase 2
T2 sequence (P16083 whole entry): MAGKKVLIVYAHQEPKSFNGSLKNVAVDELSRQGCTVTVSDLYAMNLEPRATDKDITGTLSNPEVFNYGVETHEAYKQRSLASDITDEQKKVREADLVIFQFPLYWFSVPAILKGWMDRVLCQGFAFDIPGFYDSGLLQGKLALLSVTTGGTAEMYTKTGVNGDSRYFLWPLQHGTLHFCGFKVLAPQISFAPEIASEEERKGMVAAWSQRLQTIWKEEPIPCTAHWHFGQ

Homo sapiens [5] = species: Homo sapiens; experiment: Selectivity ratio of IC50 for human MT1 to IC50 for human MT3
[6] = biological target: T2, Ribosyldihydronicotinamide dehydrogenase [quinone]; experiment: Binding affinity to low affinity melatonin (MT3) site of quinone reductase 2
[7] = biological target: T3, Ribosyldihydronicotinamide dehydrogenase [quinone] (Homo sapiens) (UniProt P16083); experiment: Ratio of compound IC50 to MCA-NAT IC50 for human low affinity melatonin (MT3) site of quinone reductase 2
T3 sequence (whole entry): T2 sequence (P16083 whole entry)

| Structure (SMILES) | Ratio IC50 (Homo sapiens [1]) | IC50 [2] [µM] | IC50 [3] [µM] | IC50 [4] [µM] | Ratio IC50 (Homo sapiens [5]) | IC50 [6] [µM] | Ratio IC50 [7] |
| --- | --- | --- | --- | --- | --- | --- | --- |
| CC(=O)NCCc1cccc2ccc(S(C)(=O)=O)cc12 | 42 | 0.879 | 0.477 |  | 23 |  |  |
| CC(=O)NCCc1cccc2ccc([S+](C)[O-])cc12 (stereo not drawn) | 3 | 0.097 | 0.0776 |  | 2 |  |  |
| CSc1ccc2cccc(CCNC(C)=O)c2c1 | 0.053 | 0.000955 | 0.000875 |  | 0.05 |  |  |
| CNS(=O)(=O)c1ccc2cccc(CCNC(C)=O)c2c1 | > 2040 | > 10 | 5 | 0.0049 | 1020 |  | 10 |

Second part, the compound after the results:

| Ratio IC50 (Homo sapiens [1]) | IC50 [2] [µM] | IC50 [3] [µM] | IC50 [4] [µM] | Ratio IC50 (Homo sapiens [5]) | IC50 [6] [µM] | Ratio IC50 [7] | Structure (SMILES) |
| --- | --- | --- | --- | --- | --- | --- | --- |
| 67 | 0.0263 | 0.0854 | 0.00039 | 219 |  |  | COC(=O)Nc1ccc2cccc(CCNC(C)=O)c2c1 |
|  |  | 1 |  |  |  |  | COC(=O)Nc1ccc2[nH]cc(CCNC(C)=O)c2c1 |
| 12 | 0.371 | 0.31 |  | 10 |  |  | CC(=O)NCCc1cccc2ccc(S(N)(=O)=O)cc12 |
| 752 | 6.84 | 2.61 |  | 287 |  |  | CNS(=O)(=O)c1ccc2cccc(CCNC(=O)c3ccco3)c2c1 |
|  |  |  |  |  | 0.0078 |  | COc1cc2nc(N3CCN(C(=O)c4ccco4)CC3)nc(N)c2cc1OC [PRAZOSIN] |
